The source of these data is patent US11827663B2, “Use of UAP inhibitors to inhibit flux through the hexosamine biosynthetic pathway” (The Johns Hopkins University, priority 2014, dated 2023).

Molecules are shown by their SMILES.

The subject of one test is microRNA. The experiment in a line: qRT-PCR analysis of microRNA expression. In kind it is cell-based. The conditions noted are these: SW1990 and 612 cells, 48 h. How it is done:
FIGS. 20A-20C show qRT-PCR analysis of microRNA expression following treatment with different concentrations of Ac4Glc2Bz, for SW1990 cells of […] (FIG. 20A); for 612 cells of 191b-5p (FIG. 20B); and for SW1990 cells of 181p-5p (FIG. 20C).
The microRNAs analyzed were chosen because they regulated different aspects of cancer cell glycosylation. 3×10^5 cells per well in a 6-well plate were seeded along with the concentrations of Ac4Glc2Bz indicated. Glioblastoma cells were placed on 6-well plates precoated with laminin (1 ug/cm^2). After 48 h, miRNA was extracted using a miRNeasy kit (Qiagen), followed by cDNA synthesis and qrt-PCR using miRCURY LNA™ Universal RT microRNA PCR Starter Kit (Exiqon).

Test [1] deals with primary glioblastoma cell line 612. The experiment in a line: Cell count of primary glioblastoma line 612. In kind it is cell-based. How it is done:
FIG. 7A depicts the results of primary glioblastoma lines 612 and GS1049 after incubation for 48 h with Ac4Glc2Bz followed by cell counting and normalization to untreated controls. The data is log transformed to easily determine IC50 values. FIG. 7B and FIG. 7C depict the measurement of proliferation of the primary glioblastoma lines after 48 h incubation with Ac4Glc2Bz using a MTT assay.
Furthermore, cell morphologies were grossly altered as concentrations of Ac4Glc2Bz were increased, which likely indicated severe metabolic stress, induction of apoptosis, and possibly altered adhesion.
Cells were incubated at a range of concentrations of the UAP inhibitors (typically at 0, 10, 25, 50, 100, and 150 μM) and the number of cells were quantified, typically by automated counting (e.g., with a Coulter Counter Z2 instrument) after 1, 2, 3, or 5 days of exposure.

As to `CC(=O)OCC1OC(OC(C)=O)[C@@H](NC(=O)c2ccccc2)[C@@H](OC(C)=O)[C@@H]1OC(C)=O` (stereo partly drawn) [Ac4Glc2Bz], the microRNA expression result in the test with microRNA is “could be modulated”. Also, the “cell densities under a microscope” value in test [1] (612 cells treated for 48 hours, FIG. 11) was “striking reduction in cell densities in a dose dependent manner”. The IC50 – broadly, the point on the concentration scale where inhibition reaches its midpoint – in test [1] (48 h incubation, cell counting normalized to untreated controls, read-out: Estimated IC50 values, 612) is 36.2 ± 1.1 µM.
